From patent US20250320184A1 (SIRONAX LTD., priority 2022, published 2025)

Each compound was assayed against T1, SARM1 (50-724) (Homo sapiens, UniProt Q6SZW1) (assay: biochemical).
T1 sequence (Q6SZW1 50-724): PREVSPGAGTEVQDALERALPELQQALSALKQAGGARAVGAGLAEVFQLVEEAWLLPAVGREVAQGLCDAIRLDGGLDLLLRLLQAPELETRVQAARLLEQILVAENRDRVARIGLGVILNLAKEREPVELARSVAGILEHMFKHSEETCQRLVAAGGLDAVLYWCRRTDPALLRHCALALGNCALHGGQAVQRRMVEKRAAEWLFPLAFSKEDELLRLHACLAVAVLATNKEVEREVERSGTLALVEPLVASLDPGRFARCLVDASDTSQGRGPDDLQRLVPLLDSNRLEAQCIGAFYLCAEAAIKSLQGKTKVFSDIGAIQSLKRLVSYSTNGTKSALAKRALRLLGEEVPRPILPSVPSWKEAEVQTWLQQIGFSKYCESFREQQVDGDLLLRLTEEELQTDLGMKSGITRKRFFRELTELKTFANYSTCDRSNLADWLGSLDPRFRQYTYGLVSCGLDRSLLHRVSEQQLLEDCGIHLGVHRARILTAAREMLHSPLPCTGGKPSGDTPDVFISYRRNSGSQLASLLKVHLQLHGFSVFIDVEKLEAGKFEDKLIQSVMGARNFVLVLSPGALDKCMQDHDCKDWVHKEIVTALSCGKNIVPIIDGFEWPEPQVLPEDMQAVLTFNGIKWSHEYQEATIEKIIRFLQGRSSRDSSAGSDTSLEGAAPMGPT
Protocol: An enzymatic assay was performed in a 384-well plate using Dulbecco's phosphate-buffered saline (PBS) as the reaction buffer. […] The reaction was initiated by adding a mixture of 200 μM nicotinamide mononucleotide (NMN) as activator and 100 μM NAD^+ as substrate. After 1 h of incubation at room temperature, the reaction was terminated with 10 times volume of 70% acetonitrile, then centrifuged at 3800 rpm for 10 min.

IC50 [nM]	SMILES
100 to 500	CC(Nc1ccc2nc[nH]c(=O)c2n1)c1ccc(F)c(Cl)c1Cl (racemic) [Compound 384, 6-((1-(2,3-dichloro-4-fluorophenyl)ethyl)amino)pyrido[3,2-d]pyrimidin-4(3H)-one]
< 100	Cc1c2c(F)cc(NC(C)c3nc(Cl)c(Cl)s3)cc2nn1CC(N)=O (racemic) [Compound 389, 2-(6-((1-(4,5-dichlorothiazol-2-yl)ethyl)amino)-4-fluoro-3-methyl-2H-indazol-2-yl)acetamide]
500 to 1000	Cc1cc(F)cc(C(C)Nc2ccc3c(c2)C(=O)NCC3)c1 (racemic) [Example 93, 7-((1-(3-fluoro-5-methylphenyl)ethyl)amino)-3,4-dihydroisoquinolin-1(2H)-one]
> 1000	CC(Nc1ccc2c(c1)C(=O)NCC2)c1ccc(Cl)c(F)c1 (racemic) [Example 96, 7-((1-(4-chloro-3-fluorophenyl)ethyl)amino)-3,4-dihydroisoquinolin-1(2H)-one]
500 to 1000	CC(Nc1ccc2c(c1)C(=O)NCC2)c1cc(Cl)cc(Cl)n1 (racemic) [Example 97, 7-((1-(4,6-dichloropyridin-2-yl)ethyl)amino)-3,4-dihydroisoquinolin-1(2H)-one]
> 1000	CC(Nc1ccc2c(c1)C(=O)NCC2)c1cc(Cl)nc(Cl)c1 (racemic) [Example 98, 7-((1-(2,6-dichloropyridin-4-yl)ethyl)amino)-3,4-dihydroisoquinolin-1(2H)-one]
> 1000	Cc1cccc(C(C)Nc2ccc3c(c2)C(=O)NCC3)c1F (racemic) [Example 99, 7-((1-(2-fluoro-3-methylphenyl)ethyl)amino)-3,4-dihydroisoquinolin-1(2H)-one]
100 to 500	CC(Nc1ccc2c(c1)C(=O)NCC2)c1cccc(Cl)c1Cl (racemic) [Example 100, 7-((1-(2,3-dichlorophenyl)ethyl)amino)-3,4-dihydroisoquinolin-1(2H)-one]
100 to 500	CC(Nc1ccc2c(c1)C(=O)NCC2)c1cc(F)cc(Cl)c1 (racemic) [Example 101, 7-((1-(3-chloro-5-fluorophenyl)ethyl)amino)-3,4-dihydroisoquinolin-1(2H)-one]
< 100	CC(Nc1ccc2cc[nH]c(=O)c2c1)c1cccc(Cl)c1Cl (racemic) [Example 103, 7-((1-(2,3-dichlorophenyl)ethyl)amino)isoquinolin-1(2H)-one]
500 to 1000	CC(Nc1ccc2c(c1)C(=O)NCC2)c1ccc(Cl)c(Cl)c1 (racemic) [Example 104, 7-((1-(3,4-dichlorophenyl)ethyl)amino)-3,4-dihydroisoquinolin-1(2H)-one]
100 to 500	Cc1ccc(F)cc1C(C)Nc1ccc2c(c1)C(=O)NCC2 (racemic) [Example 105, 7-((1-(5-fluoro-2-methylphenyl)ethyl)amino)-3,4-dihydroisoquinolin-1(2H)-one]
> 1000	CC(Nc1ccc2c(c1)C(=O)NCC2)c1cccc(F)c1F (racemic) [Example 106, 7-((1-(2,3-difluorophenyl)ethyl)amino)-3,4-dihydroisoquinolin-1(2H)-one]
100 to 500	CC(Nc1ccc2cc[nH]c(=O)c2c1)c1cnc(Cl)c(Cl)c1 (racemic) [Example 107, 7-((1-(5,6-dichloropyridin-3-yl)ethyl)amino)isoquinolin-1(2H)-one]
100 to 500	CC(Nc1ccc2cc[nH]c(=O)c2c1)c1cccc(Cl)c1 (racemic) [Example 108, 7-((1-(3-chlorophenyl)ethyl)amino)isoquinolin-1(2H)-one]
100 to 500	CCC(Nc1ccc2c(c1)C(=O)NCC2)c1cc(C)cc(F)c1 (racemic) [Example 109, 7-((1-(3-fluoro-5-methylphenyl)propyl)amino)-3,4-dihydroisoquinolin-1(2H)-one]
100 to 500	CC(Nc1ccc2cc[nH]c(=O)c2c1)c1ccccc1Cl (racemic) [Example 110, 7-((1-(2-chlorophenyl)ethyl)amino)isoquinolin-1(2H)-one]
500 to 1000	CC(Nc1ccc2cc[nH]c(=O)c2c1)c1cccc(F)c1 (racemic) [Example 113, 7-((1-(3-fluorophenyl)ethyl)amino)isoquinolin-1(2H)-one]
100 to 500	CC(Nc1ccc2cc[nH]c(=O)c2c1)c1cc(F)cc(F)c1 (racemic) [Example 114, 7-((1-(3,5-difluorophenyl)ethyl)amino)isoquinolin-1(2H)-one]
> 1000	CC(Nc1ccc2cc[nH]c(=O)c2c1)c1ccccc1F (racemic) [Example 115, 7-((1-(2-fluorophenyl)ethyl)amino)isoquinolin-1(2H)-one]
> 1000	CC(Nc1ccc2cc[nH]c(=O)c2c1)c1ccc(Cl)cc1 (racemic) [Example 116, 7-((1-(4-chlorophenyl)ethyl)amino)isoquinolin-1(2H)-one]

IC50 [nM]	SMILES
100 to 500	COc1ncc(C(C)Nc2ccc3cc[nH]c(=O)c3c2)cc1Cl (racemic) [Example 117, 7-((1-(5-chloro-6-methoxypyridin-3-yl)ethyl)amino)isoquinolin-1(2H)-one]
< 100	CC(Nc1ccc2cc[nH]c(=O)c2c1)c1nccc(Cl)c1Cl (racemic) [Example 118, 7-((1-(3,4-dichloropyridin-2-yl)ethyl)amino)isoquinolin-1(2H)-one]
500 to 1000	CC(Nc1ccc2c(c1)C(=O)NCC2)c1cnc(Cl)c(Cl)c1 (racemic) [Example 119, 7-((1-(5,6-dichloropyridin-3-yl)ethyl)amino)-3,4-dihydroisoquinolin-1(2H)-one]
> 1000	CC(Nc1ccc2c(c1)C(=O)NC2)c1cccc(Cl)c1Cl (racemic) [Example 120, 6-((1-(2,3-dichlorophenyl)ethyl)amino)isoindolin-1-one]
500 to 1000	CC(Nc1ccc2c(c1)NC(=O)CC2)c1cccc(Cl)c1Cl (racemic) [Example 121, 7-((1-(2,3-dichlorophenyl)ethyl)amino)-3,4-dihydroquinolin-2(1H)-one]
500 to 1000	CC(Nc1ccc2cc[nH]c(=O)c2c1)c1cc(Cl)cnc1Cl (racemic) [Example 122, 7-((1-(2,5-dichloropyridin-3-yl)ethyl)amino)isoquinolin-1(2H)-one]
> 1000	Cc1ccc(C(C)Nc2ccc3c(c2)C(=O)NCC3)cc1F (racemic) [Example 123, 7-((1-(3-fluoro-4-methylphenyl)ethyl)amino)-3,4-dihydroisoquinolin-1(2H)-one]
500 to 1000	CCCC(Nc1ccc2c(c1)C(=O)NCC2)c1cc(C)cc(F)c1 (racemic) [Example 125, 7-((1-(3-fluoro-5-methylphenyl)butyl)amino)-3,4-dihydroisoquinolin-1(2H)-one]
100 to 500	CCC(Nc1ccc2cc[nH]c(=O)c2c1)c1cccc(Cl)c1 (racemic) [Example 126, 7-((1-(3-chlorophenyl)propyl)amino)isoquinolin-1(2H)-one]
> 1000	Cc1cc(F)cc(C(Cc2ccccc2)Nc2ccc3c(c2)C(=O)NCC3)c1 (racemic) [Example 127, 7-((1-(3-fluoro-5-methylphenyl)-2-phenylethyl)amino)-3,4-dihydroisoquinolin-1(2H)-one]
< 100	CC(Nc1ccc2nc[nH]c(=O)c2c1)c1cccc(Cl)c1Cl (racemic) [Example 128, 6-((1-(2,3-dichlorophenyl)ethyl)amino)quinazolin-4(3H)-one]
500 to 1000	CC(Nc1ccc2cccnc2c1)c1cccc(Cl)c1Cl (racemic) [Example 129, N-(1-(2,3-dichlorophenyl)ethyl)quinolin-7-amine]
100 to 500	CC(Nc1ccc2cc[nH]c(=O)c2c1)c1sc(Cl)nc1Cl (racemic) [Example 130, 7-((1-(2,4-dichlorothiazol-5-yl)ethyl)amino)isoquinolin-1(2H)-one]
100 to 500	CC(Nc1ccc2cc[nH]c(=O)c2c1)c1ccnc(Cl)c1Cl (racemic) [Example 131, 7-((1-(2,3-dichloropyridin-4-yl)ethyl)amino)isoquinolin-1(2H)-one]
< 100	CC(Nc1ccc2cc[nH]c(=O)c2c1)c1cc(Cl)ccc1Cl (racemic) [Example 132, 7-((1-(2,5-dichlorophenyl)ethyl)amino)isoquinolin-1(2H)-one]
100 to 500	CC(Nc1ccc2ncn(C)c(=O)c2c1)c1cccc(Cl)c1Cl (racemic) [Example 133, 6-((1-(2,3-dichlorophenyl)ethyl)amino)-3-methylquinazolin-4(3H)-one]
> 1000	CC(Nc1ccc2ccccc2n1)c1cccc(Cl)c1Cl (racemic) [Example 134, N-(1-(2,3-dichlorophenyl)ethyl)quinolin-2-amine]
< 100	CC(Nc1ccc2cc[nH]c(=O)c2c1)c1cc(F)ccc1Cl (racemic) [Example 135, 7-((1-(2-chloro-5-fluorophenyl)ethyl)amino)isoquinolin-1(2H)-one]
< 100	CC(Nc1ccc2cc[nH]c(=O)c2c1)c1cc(F)cc(Cl)c1Cl (racemic) [Example 136, 7-((1-(2,3-dichloro-5-fluorophenyl)ethyl)amino)isoquinolin-1(2H)-one]
< 100	CC(Nc1ccc2cc[nH]c(=O)c2c1)c1cc(F)cc(F)c1Cl (racemic) [Example 137, 7-((1-(2-chloro-3,5-difluorophenyl)ethyl)amino)isoquinolin-1(2H)-one]
